Measured values from EP0330052B1, “Use of benzimidazoles for preparing a medicine with an anti-ischemial activity on the heart, and combinations with betablockers or bradycardics” (Dr. Karl Thomae GmbH, priority 1988, dated 1989).

Tests used:
[1] = test system: Kaninchen; experiment: Influence on infarct size in an ischaemia/reperfusion model (60 min coronary ligation, 30 min reperfusion); assay type: in vivo; settings: i.v. 10 min before occlusion
Experimental: 1. Beeinflussung der Infarktgröße an einem Ischämie/Reperfusionsmodell
Kaninchen (Russen beiderlei Geschlechts, Körpergewicht 2-2,5 kg) werden mit einem Bolus (40-60 mg/kg i.p.) und nachfolgender Dauerinfusion (10 |g/kg/h) Pentobarbital narkotisiert. Die Körpertemperatur wird bei 38°C gehalten. Nach endotrachealer Intubation werden die Tiere druckkonstant mit einer Mischung aus 50 % O₂ und 50 % N₂ beatmet. Die Kontrolle der Blutgase und des Blut pH erfolgt mit einem Blutgasanalyzer (ABL-2, Radiometer). Zur Messung des linksventrikulären Druckes wurde ein Druckwandler über die A-carotis in die linke Herzkammer geschoben. Der Aortendruck wird über einen via A. femoralis eingeführten Katheter erfaßt. Nach Eröffnung des Thorax im 5. linken Interkostalraum wird die linke absteigende Koronararterie für 60 Minuten ligiert und danach die Koronararterie wieder eröffnet. Nach 30minütiger Reperfusion wird die Arterie an derselben Stelle wieder verschlossen und das normal perfundierte Myokard mit Patentblau (in den linken Vorhof injiziert) angefärbt. Das Herz wird danach in drei Scheiben geschnitten und das bisher ungefärbte, vorher ischämische Gewebe, wird in einem Puffer mit Triphenyltetrazolium angefärbt. Überlebende Herzmuskelreale färben sich ziegelrot, während totes Gewebe bleich erscheint. […]

[2] = test system: Hunde; experiment: Effect on collateral-dependent residual myocardial perfusion after repeated complete occlusion of the circumflex branch of the left coronary artery (radioactive microspheres); assay type: in vivo; settings: relative to third occlusion
Experimental: 2. Wirkung auf die kollateralabhängige Restperfusion des Myokards nach wiederholter vollständiger Okklusion des umschlingenden Astes der linken Koronararterie
Hunde (mischrassig, beiderlei Geschlechts, 20-30 kg Körpergewicht) werden mit Morphin (1 mg/kg s.c.) prämediziert und mit Pentobarbital (i.v. 20 mg/kg Bolus gefolgt von einer Dauerinfusion von 8 mg/kg) narkotisiert. Die Körpertemperatur wird mit einem Heizkissen bei 38°C gehalten. Nach endotrachealer Intubation werden die Tiere mit einem Gemisch von 25 % O₂ und 75 % N₂O beatmet. Der linksventrikuläre Druck wird mit einem Mikrodruckwandler gemessen, während der Aortendruck über einen via A. femoralis vorgeschobenen Katheter erfaßt wird. Nach Thoraxeröffnung im linken 5. Interkostalraum wird der Ramus circumflexus der linken Koronararterie freipärpariert und der Meßkopf eines elektromagnetischen Flowmeters darumgelegt. Zur Injektion von radioaktiven Mikrosphären (regionale Perfusionsmessung) wird der linke Vorhof kanüliert. Die Referenzprobe wird über die linke A. femoralis 2 Minuten lang bei einem Fluß von 6 ml/Minute gezogen. Die Registrierung der hämodynamischen Daten erfolgt auf einem IFD Polygraphen.
Nach einer 30minütigen Äquilibrierungsphase wird der Ramus circumflexus 6 mal im Abstand von jeweils 30 Minuten für 4 Minuten verschlossen. Dabei wird während der 4. Minute eine regionale Perfusionsbestimmung durchgeführt. Die Perfusion des Versorgungsbereiches des Ramus circumflexus ist abhängig von koronaren Kollateralgefäßen. Für die Beurteilung der Kollateralperfusion werden die besonders ischämiegefährdeten subendocardialen Herzmuskelschichten herangezogen. Als Bezugswert vor Substanzgabe dient der jeweilige Flußwert der dritten Okklusion.

[3] = Acute toxicity (LD50), mouse; settings: in vivo, Maus
[4] = Acute toxicity (LD50), rat; settings: in vivo, iv, Ratte, read-out: LD₅₀ i.v.
[5] = po, read-out: LD₅₀ p.o. (converted)

| Compound | % Änderung des Kollateralflusses pro Herzschlag im subendocardialen ischämischen Myocard ([2]; Dosis i.v. 30 µg/kg) | LD50 ([3]; iv, read-out: LD₅₀ i.v.) | LD50 [3, 5] | LD50 [4] | also measured |
| --- | --- | --- | --- | --- | --- |
| CC(C)NCC(O)COc1ccc(CC(N)=O)cc1 (stereo not shown) [Atenolol, reference compound] |  |  |  |  | % des ischämischen Myokards infarziert ([1]; Dosis 0,3 mg/kg): 63% |
| Cc1nc2ccc(C3=NNC(=O)CC3C)cc2[nH]1 (stereo not shown) [C, 2-Methyl-5-(5-methyl-3-oxo-4,5-dihydro-2H-6-pyridazinyl)-benzimidazol] | +178% |  |  |  | % Änderung des Kollateralflusses pro Herzschlag im subendocardialen ischämischen Myocard ([2]; Dosis i.v. 10 µg/kg): +101% |
| COc1ccc(CCN2CCCC(CN3CCc4cc(OC)c(OC)cc4CC3=O)C2)cc1OC (stereo not shown) [D, 3-[(N-(2-(3,4-Dimethoxyphenyl)-ethyl)-piperidin-3-yl)-methyl]-7,8-dimethoxy-1,3,4,5-tetrahydro-2H-3-benzazepin-2-on] |  | 50 mg/kg | 720 mg/kg |  |  |
| COc1ccc(-c2nc3ccc(C4=NNC(=O)CC4C)cc3[nH]2)cc1 (stereo not shown) [Verbindung A, 2-(4-Methoxyphenyl)-5-(5-methyl-3-oxo-4,5-dihydro-2H-6-pyridazinyl)-benzimidazol] | +100% |  | 600 mg/kg | 72 mg/kg | % des ischämischen Myokards infarziert ([1]; Dosis 0,5 mg/kg): 34% |
| CC1CC(=O)NN=C1c1ccc2nc(-c3ccc(O)cc3)[nH]c2c1 (stereo not shown) [Verbindung B, 2-(4-Hydroxyphenyl)-5-(5-methyl-3-oxo-4,5-dihydro-2H-6-pyridazinyl)-benzimidazol] |  |  |  | > 100 mg/kg | % Änderung des Kollateralflusses pro Herzschlag im subendocardialen ischämischen Myocard ([2]; Dosis i.v. 95 µg/kg): +182% |
| COc1ccc(CCN(C)CCCN2CCc3cc(OC)c(OC)cc3CC2=O)cc1OC [Verbindung E, 1-(7,8-Dimethoxy-1,3,4,5-tetrahydro-2H-3-benzazepin-2-on-3-yl)-3-[N-methyl-N-(2-(3,4-dimethoxyphenyl)-ethyl)-amino]propan] |  | 89 mg/kg | 1350 mg/kg |  |  |
